Converted amounts (≈) assume the structure as drawn.
Legend:
Type in all cases: physicochemical
[1] = Competitive slurrying testing at room temperature (trans-crystallization); conditions: isobutanol, isopropanol and methyl tert-butyl ether, one day
Protocol: 10 mg of compound A crystal form I, crystal form IV, crystal form V and crystal form VI were added to 500 μL of three different solvent systems (isobutanol, isopropanol and methyl tert-butyl ether), respectively. The mixture was slurried at room temperature for one day. The solids were dried at 50° C. under vacuum overnight and characterized by XRPD.

[2] = Heating study to 190° C. with XRPD (trans-crystallization); conditions: heated to 190° C.
Protocol: A certain amount of compound A crystal form V and VI were weighed, heated to 190° C. and then characterized by XRPD.

[3] = Stability influencing factor tests of compound A crystal form I (high temperature, high humidity, illumination)
Protocol: Stability influencing factor tests were carried out on the samples of compound A crystal form I. The corresponding placement conditions and test results are listed in Table 5.

[4] = Solubility of the starting material (compound A crystal form I) in different solvents
[5] = Dynamic moisture adsorption and desorption analysis (DVS), hygroscopicity, XRPD after test
Protocol: The samples were tested for hygroscopicity using DVS Intrinsic (SMS, UK). 30-50 mg of a sample was placed into a sample pan, and the change of sample mass with humidity at 25° C. was recorded. The instrument parameters were:
After the hygroscopicity test was completed, the crystal form of the sample was tested by XRPD.

[6] = Accelerated stability study of the free base and crystalline salts (40° C./75% RH and 60° C., HPLC and XRPD)
Protocol: The crystals were tested for HPLC and XRPD in different time points.

[7] = Solubility and stability of the free base and crystalline salts in water, SGF, FaSSIF and FeSSIF; conditions: for Crystal form / crystallinity in the vehicle: XRPD
Excerpt: The solubility and stability of compound A crystal form, compound A maleate crystal form I and compound A acetate crystal form I in water, SGF (simulated gastric fluid), FaSSIF (simulated intestinal fluid in fasted state) and FeSSIF (simulated intestinal fluid in fed state) were studied.

[8] = High humidity (92.5% RH/25° C.), 0 days
[9] = High humidity (92.5% RH/25° C.), 5 days
[10] = High humidity (92.5% RH/25° C.), 10 days
[11] = High humidity (92.5% RH/25° C.), 37 days
[12] = High temperature (60° C.), 0 days
[13] = High temperature (60° C.), 5 days
[14] = High temperature (60° C.), 10 days
[15] = High temperature (60° C.), 37 days
[16] = Illumination (1.2*10^6 Lux · hr, 200 w · hr/m^2), 0 days
[17] = Illumination (1.2*10^6 Lux · hr, 200 w · hr/m^2), 5 days
[18] = Illumination (1.2*10^6 Lux · hr, 200 w · hr/m^2), 10 days
[19] = FaSSIF (simulated intestinal fluid in fasted state), 37 °C, fassif, thermodynamic from solid, sample 10 mg/ml
[20] = FeSSIF (simulated intestinal fluid in fed state), 37 °C, fessif, thermodynamic from solid, sample 10 mg/ml
[21] = SGF (simulated gastric fluid), 37 °C, simulated gastric fluid, thermodynamic from solid, SGF, sample 10 mg/ml
[22] = water, thermodynamic from solid, H2O, room temperature, sample 5 mg/ml

Question: Which “Trans-crystallization on competitive slurrying” value [1] does the source give for `[2H]C([2H])([2H])n1nc2c(c1C#N)-c1cnc(N)c(c1)O[C@H](C)c1cc(F)ccc1C(=O)N(C)C2` [compound A crystal form IV, (10R)-7-amino-12-fluoro-2-(methyl-d3)-10,16-dimethyl-15-oxo-10,15,16,17-tetrahydro-2H-8,4-(metheno)pyrazolo[4,3-h][2,5,11]benzoxadiazacyclotetradecine-3-carbonitrile] here?
Answer: Its value is “trans-crystallized to crystal form I”.

Question: Which “Crystal form after heating” value [2] does the source give for `[2H]C([2H])([2H])n1nc2c(c1C#N)-c1cnc(N)c(c1)O[C@H](C)c1cc(F)ccc1C(=O)N(C)C2` [compound A crystal form V, (10R)-7-amino-12-fluoro-2-(methyl-d3)-10,16-dimethyl-15-oxo-10,15,16,17-tetrahydro-2H-8,4-(metheno)pyrazolo[4,3-h][2,5,11]benzoxadiazacyclotetradecine-3-carbonitrile] here?
Answer: Its value is “transformed into crystal form I”.

Question: What does the source list for `[2H]C([2H])([2H])n1nc2c(c1C#N)-c1cnc(N)c(c1)O[C@H](C)c1cc(F)ccc1C(=O)N(C)C2` [compound A crystal form I, (10R)-7-amino-12-fluoro-2-(methyl-d3)-10,16-dimethyl-15-oxo-10,15,16,17-tetrahydro-2H-8,4-(metheno)pyrazolo[4,3-h][2,5,11]benzoxadiazacyclotetradecine-3-carbonitrile]?
Answer: Content [3, 8]: 99.9%; Shape [3, 8]: White solid; Total impurity content [3, 8]: <0.05%; Content [3, 9]: 99.5%; Shape [3, 9]: White solid; Total impurity content [3, 9]: <0.05%; Content [3, 10]: 99.7%; Shape [3, 10]: White solid; Total impurity content [3, 10]: <0.05%; Content [3, 11]: 99.4%; Shape [3, 11]: White solid; Total impurity content [3, 11]: <0.05%; Content [3, 12]: 99.9%; Shape [3, 12]: White solid; Total impurity content [3, 12]: <0.05%; Content [3, 13]: 98.8%; Shape [3, 13]: White solid; Total impurity content [3, 13]: <0.05%; Content [3, 14]: 100.4%; Shape [3, 14]: White solid; Total impurity content [3, 14]: <0.05%; Content [3, 15]: 99.8%; Total impurity content [3, 15]: <0.05%; Content [3, 16]: 99.9%; Shape [3, 16]: White solid; Total impurity content [3, 16]: <0.05%; Content [3, 17]: 98.7%; Total impurity content [3, 17]: <0.05%; Content [3, 18]: 99.1%; Total impurity content [3, 18]: <0.05%; Solubility ([4]; Acetone): ~246000 µg/mL (≈ 601 mM); Solubility ([4]; Acetone, listed as starting material): greater than 100 mg/mL; Solubility ([4]; Acetonitrile): ~183000 µg/mL (≈ 447 mM); Solubility ([4]; Butanone): ~173000 µg/mL (≈ 423 mM); Solubility ([4]; Dichloromethane): ~240000 µg/mL (≈ 586 mM); Solubility ([4]; Dichloromethane, listed as starting material): greater than 100 mg/mL; Solubility ([4]; Ethanol): ~21000 µg/mL (≈ 51.3 mM); Solubility ([4]; Ethyl acetate): ~100000 µg/mL (≈ 244 mM); Solubility ([4]; Isobutanol): ~1700 µg/mL (≈ 4.15 mM); Solubility ([4]; Isopropanol): ~2500 µg/mL (≈ 6.11 mM); Solubility ([4]; Isopropanol, listed as starting material): 1000 to 2000 µg/mL; Solubility ([4]; Isopropyl acetate): ~22000 µg/mL (≈ 53.7 mM); Solubility ([4]; Methanol): ~190000 µg/mL (≈ 464 mM); Solubility ([4]; Methyl tert-butyl ether): ~2500 µg/mL (≈ 6.11 mM); Solubility ([4]; Methyl tert-butyl ether, listed as starting material): 1000 to 2000 µg/mL; Solubility ([4]; Tetrahydrofuran): ~215000 µg/mL (≈ 525 mM); Solubility ([4]; Tetrahydrofuran, listed as starting material): greater than 100 mg/mL; Solubility ([4]; acetonitrile, organic solvent or mixture, thermodynamic from solid, Acetonitrile, read-out: Solubility): > 100000 µg/mL; Solubility ([4]; butanone, organic solvent or mixture, thermodynamic from solid, Butanone, read-out: Solubility): > 100000 µg/mL; Solubility ([4]; ethanol, organic solvent or mixture, thermodynamic from solid, Ethanol, read-out: Solubility): ~20000 µg/mL (≈ 48.8 mM); Solubility ([4]; ethyl acetate, organic solvent or mixture, thermodynamic from solid, Ethyl acetate, read-out: Solubility): > 100000 µg/mL; Solubility ([4]; isobutanol, organic solvent or mixture, thermodynamic from solid, Isobutanol, read-out: Solubility): 1000 to 2000 µg/mL (≈ 2.44 to 4.88 mM); Solubility ([4]; isopropyl acetate, organic solvent or mixture, thermodynamic from solid, Isopropyl acetate, read-out: Solubility): ~20000 µg/mL (≈ 48.8 mM); Solubility ([4]; methanol, organic solvent or mixture, thermodynamic from solid, Methanol, read-out: Solubility): > 100000 µg/mL; Solubility ([4]; water): ~1000 µg/mL (≈ 2.44 mM); Solubility ([4]; water, thermodynamic from solid, Water, read-out: Solubility): 1000 to 2000 µg/mL (≈ 2.44 to 4.88 mM); Crystal form before and after the DVS test ([5]; XRPD): not changed; DVS weight gain ([5]; humidity increased from 0% RH to 80% RH, 25° C.): 0.17%; Purity % ([6]; 0 days; HPLC): 99.2%; Crystal form ([6]; 0 days; XRPD): Unchanged; Crystal form ([6]; 40° C./75% RH, 7 days, XRPD): not changed; Purity ([6]; 40° C./75% RH, 7 days; HPLC): not changed; Purity % ([6]; 40° C./75% RH, 7 days; HPLC): 99.4%; Crystal form ([6]; 40° C./75% RH, 7 days; XRPD): Unchanged; Crystal form ([6]; 60° C., 7 days, XRPD): not changed; Purity ([6]; 60° C., 7 days; HPLC): not changed; Purity % ([6]; 60° C., 7 days; HPLC): 99.3%; Crystal form ([6]; 60° C., 7 days; XRPD): Unchanged; solubility at 0.5 h [7, 19]: 170 µg/mL; solubility at 24 h [7, 19]: 110 µg/mL; Solubility ([7]; FaSSIF (simulated intestinal fluid in fasted state), fassif, thermodynamic from solid, FaSSIF (simulated intestinal fluid in fasted state), read-out: Solubility): < 3000 µg/mL; Crystal form / crystallinity in the vehicle ([7]; FaSSIF): nearly amorphous; solubility at 0.5 h [7, 20]: 550 µg/mL; solubility at 24 h [7, 20]: 380 µg/mL; Solubility ([7]; FeSSIF (simulated intestinal fluid in fed state), fessif, thermodynamic from solid, FeSSIF (simulated intestinal fluid in fed state), read-out: Solubility): < 3000 µg/mL; Crystal form / crystallinity in the vehicle ([7]; FeSSIF): nearly amorphous; solubility at 0.5 h [7, 21]: 10900 µg/mL; solubility at 24 h [7, 21]: 10200 µg/mL; Solubility ([7]; SGF (simulated gastric fluid), simulated gastric fluid, thermodynamic from solid, SGF (simulated gastric fluid), read-out: Solubility): > 5000 µg/mL; Solubility ([7]; water): < 3000 µg/mL; Crystal form / crystallinity in the vehicle ([7]; water): not changed; solubility at 0.5 h [7, 22]: 110 µg/mL; solubility at 24 h [7, 22]: 95 µg/mL; Solubility ([7]; water, listed as free base): less than 0.2 mg/mL
